Test results taken from PubChem BioAssay (NCI).
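The concentration for 50% growth inhibition is given as GI50. TGI: concentration producing complete growth inhibition.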

Columns and labels:
Assay in all cases: DTP human tumour cell line panel, 384-well format
UACC-62 melanoma = test system: UACC-62 melanoma
MDA-MB-231 breast = test system: MDA-MB-231 breast
OVCAR-3 ovarian = test system: OVCAR-3 ovarian
SK-MEL-2 melanoma = test system: SK-MEL-2 melanoma
T-47D breast = test system: T-47D breast
NCI/ADR-RES ovarian = test system: NCI/ADR-RES ovarian
DU-145 prostate = test system: DU-145 prostate
UO-31 renal = test system: UO-31 renal
SK-MEL-5 melanoma = test system: SK-MEL-5 melanoma
RXF 393 renal = test system: RXF 393 renal
K-562 leukemia = test system: K-562 leukemia
SK-MEL-28 melanoma = test system: SK-MEL-28 melanoma
UACC-257 melanoma = test system: UACC-257 melanoma
SN12C renal = test system: SN12C renal
M14 melanoma = test system: M14 melanoma
U251 glioblastoma = test system: U251 glioblastoma
HOP-92 NSCLC = test system: HOP-92 NSCLC
NCI-H460 NSCLC = test system: NCI-H460 NSCLC
SNB-19 CNS = test system: SNB-19 CNS
HCT-15 colon = test system: HCT-15 colon
MOLT-4 leukemia = test system: MOLT-4 leukemia
MDA-MB-435 melanoma = test system: MDA-MB-435 melanoma
RPMI-8226 leukemia = test system: RPMI-8226 leukemia
HT29 colon = test system: HT29 colon
MDA-MB-468 breast = test system: MDA-MB-468 breast
CAKI-1 renal = test system: CAKI-1 renal
PC-3 prostate = test system: PC-3 prostate
786-0 renal = test system: 786-0 renal
HOP-62 NSCLC = test system: HOP-62 NSCLC
KM12 colon = test system: KM12 colon
SW-620 colon = test system: SW-620 colon
MALME-3M melanoma = test system: MALME-3M melanoma
SNB-75 CNS = test system: SNB-75 CNS
HS 578T breast = test system: HS 578T breast
HL-60(TB) leukemia = test system: HL-60(TB) leukemia
MCF7 breast = test system: MCF7 breast
TK-10 renal = test system: TK-10 renal
SF-268 CNS = test system: SF-268 CNS
SF-295 CNS = test system: SF-295 CNS
HCC-2998 colon = test system: HCC-2998 colon
A549 NSCLC = test system: A549 NSCLC
SF-539 CNS = test system: SF-539 CNS
OVCAR-8 ovarian = test system: OVCAR-8 ovarian
OVCAR-5 ovarian = test system: OVCAR-5 ovarian
SK-OV-3 ovarian = test system: SK-OV-3 ovarian
HCT-116 colon = test system: HCT-116 colon
EKVX NSCLC = test system: EKVX NSCLC

CC1=C(c2cccc(O)c2)[C@H](c2ccc(OCCN3CC(CF)C3)cc2)Oc2ccc(O)cc21
GI50 (UACC-62 melanoma): 4.7 µM
TGI (UACC-62 melanoma): 16.4 µM
GI50 (MDA-MB-231 breast): 6.48 µM
TGI (MDA-MB-231 breast): 19.2 µM
GI50 (OVCAR-3 ovarian): 4.05 µM
TGI (OVCAR-3 ovarian): 15.4 µM
GI50 (SK-MEL-2 melanoma): 1.96 µM
TGI (SK-MEL-2 melanoma): 3.78 µM
GI50 (T-47D breast): 1.11 µM
TGI (T-47D breast): 12.4 µM
GI50 (NCI/ADR-RES ovarian): 16.2 µM
TGI (NCI/ADR-RES ovarian): 29.8 µM
GI50 (DU-145 prostate): 10.8 µM
TGI (DU-145 prostate): 22.7 µM
GI50 (UO-31 renal): 9.8 µM
TGI (UO-31 renal): 21.5 µM
GI50 (SK-MEL-5 melanoma): 1.68 µM
TGI (SK-MEL-5 melanoma): 3.07 µM
GI50 (RXF 393 renal): 1.87 µM
TGI (RXF 393 renal): 5.29 µM
GI50 (K-562 leukemia): 1.73 µM
TGI (K-562 leukemia): 3.29 µM
GI50 (SK-MEL-28 melanoma): 3.05 µM
TGI (SK-MEL-28 melanoma): 11.6 µM
GI50 (UACC-257 melanoma): 1.64 µM
TGI (UACC-257 melanoma): 3.01 µM
GI50 (SN12C renal): 7.94 µM
TGI (SN12C renal): 20.6 µM
GI50 (M14 melanoma): 1.89 µM
TGI (M14 melanoma): 3.88 µM
GI50 (U251 glioblastoma): 5.35 µM
TGI (U251 glioblastoma): 17.1 µM
GI50 (HOP-92 NSCLC): 3.83 µM
TGI (HOP-92 NSCLC): 13.1 µM
GI50 (NCI-H460 NSCLC): 2.18 µM
TGI (NCI-H460 NSCLC): 4.88 µM
GI50 (SNB-19 CNS): 10.5 µM
TGI (SNB-19 CNS): 22.3 µM
GI50 (HCT-15 colon): 3.57 µM
TGI (HCT-15 colon): 13.2 µM
GI50 (MOLT-4 leukemia): 1.58 µM
TGI (MOLT-4 leukemia): 2.97 µM
GI50 (MDA-MB-435 melanoma): 10.7 µM
TGI (MDA-MB-435 melanoma): 22.6 µM
GI50 (RPMI-8226 leukemia): 1.82 µM
TGI (RPMI-8226 leukemia): 4.02 µM
GI50 (HT29 colon): 1.94 µM
TGI (HT29 colon): 3.58 µM
GI50 (MDA-MB-468 breast): 1.94 µM
TGI (MDA-MB-468 breast): 4.35 µM
GI50 (CAKI-1 renal): 3.42 µM
TGI (CAKI-1 renal): 13.5 µM
GI50 (PC-3 prostate): 4.5 µM
TGI (PC-3 prostate): 16.9 µM
GI50 ([…]-0 renal): 2.65 µM
TGI (786-0 renal): 7.32 µM
GI50 (HOP-62 NSCLC): 4.55 µM
TGI (HOP-62 NSCLC): 15 µM
GI50 (KM12 colon): 3.21 µM
TGI (KM12 colon): 10.2 µM
GI50 (SW-620 colon): 4.9 µM
TGI (SW-620 colon): 16.6 µM
GI50 (MALME-3M melanoma): 1.64 µM
TGI (MALME-3M melanoma): 3.05 µM
GI50 (SNB-75 CNS): 2.36 µM
TGI (SNB-75 CNS): 7.79 µM
GI50 (HS 578T breast): 2.48 µM
TGI (HS 578T breast): 12 µM
GI50 (HL-60(TB) leukemia): 1.86 µM
TGI (HL-60(TB) leukemia): 3.29 µM
TGI (MCF7 breast): 1.97 µM
GI50 (TK-10 renal): 5.15 µM
TGI (TK-10 renal): 17.6 µM
GI50 (SF-268 CNS): 4.24 µM
TGI (SF-268 CNS): 15.6 µM
GI50 (SF-295 CNS): 11.6 µM
TGI (SF-295 CNS): 23.9 µM
GI50 (HCC-2998 colon): 1.54 µM
TGI (HCC-2998 colon): 3.23 µM
GI50 (A549 NSCLC): 9.02 µM
TGI (A549 NSCLC): 21.2 µM
GI50 (SF-539 CNS): 2.03 µM
TGI (SF-539 CNS): 4.26 µM
GI50 (OVCAR-8 ovarian): 10.1 µM
TGI (OVCAR-8 ovarian): 21.8 µM
GI50 (OVCAR-5 ovarian): 10.3 µM
TGI (OVCAR-5 ovarian): 22.1 µM
GI50 (SK-OV-3 ovarian): 5.77 µM
TGI (SK-OV-3 ovarian): 18.3 µM
GI50 (HCT-116 colon): 3.62 µM
TGI (HCT-116 colon): 13.8 µM
GI50 (EKVX NSCLC): 5.1 µM
TGI (EKVX NSCLC): 17.5 µM
